Patent publication US11518764B2, “Substituted heteroaryls as inhibitors of the BCL6 BTB domain protein-protein interaction” (Ontario Institute for Cancer Research (OICR), priority 2018, dated 2022)
Read-outs that look alike come from different tables or passages of the source.

Experiments:
[1] = target: BCL6 BTB domain (Homo sapiens (Human), UniProt P41182); assay: Surface plasmon resonance (SPR) assay; type: binding; conditions: BCL6 BTB domain captured on SA chip, single cycle kinetics
[2] = test system: BCL6 reporter construct (3xBCL6-TK-Luc) in SuDHL4 cells; assay: Cell-based luciferase assay
In short: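 SuDHL4 cells stably carrying a 3×BCL6-site TK-promoter firefly luciferase reporter, seeded at 15,000 cells/well, were dosed over a 10-point range (top 10 uM) and grown two days at 37 °C, 5% CO2. Luminescence then read after adding neolite reagent at room temperature.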

[3] = test system: Karpas422 cells; assay: Tumor cell growth inhibition assay; type: cell-based
In short: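 Growth inhibition was measured by ATPlite luminescence after six days of culture at 37° C. in 5% CO2. Karpas422 cells were seeded at 2,000 per well in Alpha-MEM plus 10% FBS. Compounds were given as a 10-point concentration series with a highest dose of 5 uM.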

[4] = Homo sapiens, SU-DHL-4, 48 h, read-out: Luciferase-Assay EC50, uM), SuDHL4-3xBCL6-TK-Luc cells, two days, high dose 10 uM
[5] = Homo sapiens, KARPAS-422, 144 h, read-out: Tumor Growth Inhibition in Karpas-422 (IC50, uM), Karpas422 cells, six days, ATPlite

`COCCN1CCN(c2cc(NC(=O)Cn3cc(-c4cc(Cl)c(O)c(C(N)=O)c4)c4c(=O)n(C)cnc43)c(Cl)cn2)[C@@H](C)C1` [Compound I-415] was tested, and the Kd [1] was 5.95 nM, the EC50 [2, 4] was 0.0872 µM and the IC50 [3, 5] was 0.122 µM.
For `CO[C@@H]1CN(c2cc(NC(=O)Cn3cc(-c4cc(Cl)c(O)c(C(N)=O)c4)c4c(=O)n(C)c(C)nc43)c(Cl)cn2)C[C@@H]1F` [Compound I-402], the Kd [1] was 28 nM, the EC50 [2, 4] was 0.18 µM and the IC50 [3, 5] was 0.714 µM.
`Cc1cc(-c2cn(CC(=O)Nc3cc(N4CCOCC4)ncc3Cl)c3ccn(C)c(=O)c23)cc(C(N)=O)c1O` [Compound I-142] showed a Kd [1] of 2200 nM, an EC50 [2, 4] of 4.02 µM and an IC50 [3, 5] greater than 10 µM.
Work on `Cc1nc2c(c(-c3cc(C(N)=O)c(O)c(F)c3F)cn2CC(=O)Nc2cc(N3CCN(C4COC4)C[C@@H]3C)nc(F)c2Cl)c(=O)n1C` [Compound I-429] yielded a Kd [1] of 10.9 nM, an EC50 [2, 4] of 0.162 µM and an IC50 [3, 5] of 0.154 µM.
Compound `CN(C)c1cc(NC(=O)Cn2cc(-c3cc(Cl)c(O)c(C(N)=O)c3)c3c(=O)[nH]c(Cl)nc32)c(Cl)cn1` [Compound I-293] has a Kd [1] of 18.3 nM, an EC50 [2, 4] of 10 µM and an IC50 [3, 5] of 2.44 µM.
With `CN(C)CC1CN(c2cc(NC(=O)Cn3cc(-c4cc(Cl)c(O)c(C(N)=O)c4)c4c(=O)n(C)cnc43)c(Cl)cn2)CCO1` (stereo not drawn) [Compound I-215] the Kd [1] was 9.81 nM, the EC50 [2, 4] was 0.806 µM and the IC50 [3, 5] was 0.662 µM.
With `Cc1nc2c(c(-c3cc(Cl)c(O)c(C(N)=O)c3)cn2CC(=O)Nc2cc(N3C[C@@H](C)O[C@@H](C)C3)ncc2Cl)c(=O)[nH]1` [Compound I-85] the Kd [1] was 11 nM, the EC50 [2, 4] was 0.076 µM and the IC50 [3, 5] was 0.064 µM.
For `CN1CCN(c2cc(NC(=O)Cn3cc(-c4cc(C(N)=O)c(O)c(F)c4F)c4c(=O)n(C)cnc43)c(Cl)cn2)C(C)(C)C1` [Compound I-327], the Kd [1] was 271 nM, the EC50 [2, 4] was 3 µM and the IC50 [3, 5] was 2.07 µM.
In the case of `CO[C@H]1CN(c2cc(NC(=O)Cn3cc(-c4cc(Cl)c(O)c(C(N)=O)c4)c4c(=O)n(C)c(C)nc43)c(Cl)cn2)C[C@H]1F` [Compound I-401], the Kd [1] is reported as 28.9 nM, the EC50 [2, 4] is reported as 0.427 µM and the IC50 [3, 5] is reported as 1.22 µM.
With `COC[C@@H]1COCCN1c1cc(NC(=O)Cn2cc(-c3cc(Cl)c(O)c(C(N)=O)c3)c3c(=O)n(C)cnc32)c(Cl)cn1` [Compound I-150] the Kd [1] was 12.8 nM, the EC50 [2, 4] was 0.184 µM and the IC50 [3, 5] was 0.124 µM.
Compound `C[C@H]1CN(CC2CC2)CCN1c1cc(NC(=O)Cn2cc(-c3cc(Cl)c(O)c(C(N)=O)c3)c3c(=O)n(C)cnc32)c(Cl)c(F)n1` [Compound I-444] has a Kd [1] of 19.8 nM, an EC50 [2, 4] of 0.239 µM and an IC50 [3, 5] of 0.104 µM.
Work on `Cn1cnc2c(c(-c3cc(C(N)=O)c(O)cn3)cn2CC(=O)Nc2cc(N3CCOCC3)ncc2Cl)c1=O` [Compound I-131, 2-(7-(2-((5-chloro-2-morpholinopyridin-4-yl)amino)-2-oxoethyl)-3-methyl-4-oxo-4,7-dihydro-3H-pyrrolo[2,3-d]pyrimidin-5-yl)-5-hydroxyisonicotinamide] yielded a Kd [1] of 8000 nM, an EC50 ([2]; SuDHL4-3xBCL6-TK-Luc cells, two days, high dose 10 uM, read-out: Luciferase-Assay EC50) greater than 10 µM and an IC50 ([3]; Karpas422 cells, six days, ATPlite, read-out: Tumor Growth Inhibition in Karpas-422 (IC50)) greater than 10 µM.
Compound `C[C@@H]1CN(c2cc(NC(=O)Cn3cc(-c4cc(C(N)=O)c(O)c(Cl)c4F)c4c(=O)n(C)cnc43)c(Cl)cn2)C[C@H](C)O1` [Compound I-192] has a Kd [1] of 757 nM, an EC50 ([2]; read-out: Luciferase-Assay EC50, SuDHL4-3xBCL6-TK-Luc cells, two days, high dose 10 uM) of 3.98 µM and an IC50 ([3]; read-out: Tumor Growth Inhibition in Karpas-422 (IC50), Karpas422 cells, six days, ATPlite) of 1.24 µM.
`CN1CC2CC1CN2c1cc(NC(=O)Cn2cc(-c3cc(C(N)=O)c(O)c(F)c3F)c3c(=O)n(C)cnc32)c(Cl)cn1` (stereo not drawn) [Compound I-324] was tested, and the Kd [1] was 264 nM, the EC50 [2, 4] was 10 µM and the IC50 [3, 5] was 10 µM.
`C[C@H]1CN(CC2(C(F)(F)F)CC2)CCN1c1cc(NC(=O)Cn2cc(-c3cc(C(N)=O)c(O)c(F)c3F)c3c(=O)n(C)cnc32)c(Cl)cn1` [Compound I-377] gave a Kd [1] of 208 nM, an EC50 [2, 4] of 2.97 µM and an IC50 [3, 5] of 8.61 µM.
With `CN1CCOC2(CCN(c3cc(NC(=O)Cn4cc(-c5cc(C(N)=O)c(O)cc5F)c5c(=O)n(C)cnc54)c(Cl)cn3)C2)C1` (stereo not drawn) [Compound I-184] the Kd [1] was 37.4 nM, the EC50 [2, 4] was 0.348 µM and the IC50 [3, 5] was 0.26 µM.
`C[C@H]1CN(CC2(C#N)CC2)CCN1c1cc(NC(=O)Cn2cc(-c3cc(C(N)=O)c(O)c(F)c3F)c3c(=O)n(C)cnc32)c(Cl)cn1` [Compound I-407] showed a Kd [1] of 23.6 nM, an EC50 [2, 4] of 0.783 µM and an IC50 [3, 5] of 0.377 µM.
`COc1ncc(Cl)c(NC(=O)Cn2cc(-c3cc(C(N)=O)c(O)c(F)c3F)c3c(=O)n(C)c(C)nc32)c1F` [Compound I-381] showed a Kd [1] of 240 nM, an EC50 [2, 4] of 10 µM and an IC50 [3, 5] of 10 µM.
Work on `Cc1nc2c(c(-c3cc(Cl)c(O)c(C(N)=O)c3)cn2CC(=O)Nc2cc(N3CCOC[C@@H]3C)nc(F)c2Cl)c(=O)n1C` [Compound I-315] yielded a Kd [1] of 14.2 nM, an EC50 [2, 4] of 0.114 µM and an IC50 [3, 5] of 0.147 µM.
